The values below come from PubChem BioAssay AID624404 (Broad Institute, 2012).

The experiment deals with D54 LucT luciferase reporter counterscreen, luminescence, 24 h. Description: luciferase activators in glycosylation-insensitive reporter cells, dose response, counter-screen for N-linked glycosylation inhibitor project, D54 LucT cells, luminescence, cherry pick (AID 624404).

Inconclusive results are not listed.

For `CC(C)c1ccc(OCc2ccc(C(=O)N3CCCC3)o2)cc1`, the AC35 was 0.85 µM.

Turning to `CCN(CC)c1ccc(/C=N/NC(=O)c2cnccn2)cc1`, the AC35 was 0.0537 µM.

Turning to `COc1ccc(C(=O)c2sc(Nc3ccccc3)nc2N)cc1`, the AC35 was 0.645 µM.

For the molecule `CC1CN(C(=O)c2cc(-c3ccncc3)nc3ccccc23)CC(C)O1` (stereo unspecified), the AC35 is 1.72 µM.

For the molecule `Cc1ccc2nc(/C(C#N)=C/c3cn[nH]c3-c3ccc(F)cc3)[nH]c2c1`, the AC35 was 2.18 µM.

As to `COc1ccc(OC)c(Nc2ncnc3c2cnn3-c2cccc(C)c2)c1`, the AC35 was 4.59 µM.

As for `Cc1ccc(N=Nc2c(N)nn(-c3ccccc3)c2N)cc1`, the AC35 was 0.0561 µM.

For `N#Cc1c(NC(=O)/C=C/c2ccco2)sc2c1CCCC2`, the AC35 is 0.115 µM.

On to `C[C@@]12C(=O)Nc3cc(Cl)ccc3C(=O)N1[C@H]1c3cc(Br)ccc3OC[C@@H]1[C@@H]2c1ccccc1`, for which the AC35 is 2.55 µM.

Turning to `Cc1ccc(C(=O)N/C(=C\c2cccs2)C(=O)NCCc2c[nH]c3ccccc23)cc1C`, the AC35 was 0.116 µM.

Consider `Cc1cccc(NC(=O)Nc2cccc(C#N)c2)n1`, for which the AC35 is 0.467 µM.

Take `CCCCn1c(SCc2c(C)noc2C)nc2cc(S(N)(=O)=O)ccc21`: the AC35 was 0.68 µM.

With `O=C(CCl)Nc1cccc(S(=O)(=O)NC2=NCCC2)c1`, the AC35 was 1.62 µM.

For `Cc1ccc(-n2c(SCC(=O)NCCC3=CCCCC3)nc3n[nH]c(C)c3c2=N)cc1Cl`, the AC35 was 0.0399 µM.

For the molecule `COC(=O)Nc1nc2ccc(-c3n[nH]c(=O)c4ccccc34)cc2[nH]1`, the AC35 is 0.282 µM.

Take `C=CCNc1nc2cc(-c3ccccc3C)sc2c(=O)n1C`: the AC35 was 1.11 µM.

`CC(=O)Nc1ccc(CNc2ncnc3ccc(-c4c(C)noc4C)cc23)cc1`: the AC35 is 0.264 µM.

Turning to `CCC(Cc1ccccc1)NC(=O)c1ccc2nc(N3CCOCC3)sc2c1` (stereo unspecified), the AC35 is 0.48 µM.

Take `C#CCCOC(=O)N1C2=NC(C(=O)OC)=C(C(=O)OC)[C@@H]3N(C)c4ccccc4[C@]23C[C@H]1C(=O)OC`: the AC35 is 0.934 µM.

For the molecule `Cc1cc(C)cc(N=Cc2ccc([N+](=O)[O-])s2)c1`, the AC35 is 0.724 µM.

`Cc1ccc2c(c1)[C@H]1[C@H](CO2)[C@H](c2ccccc2)[C@]2(C)C(=O)Nc3cc(Cl)ccc3C(=O)N12`: the AC35 is 1.06 µM.

As to `O=C1COc2ccc(C(=O)/C=C/c3ccccc3)cc2N1`, the AC35 was 0.641 µM.

As to `C=CCn1c(SCc2c(C)noc2C)nc2sc3c(c2c1=O)CCC(C)C3` (stereo unspecified), the AC35 was 0.238 µM.

Take `COc1ccc2c(c1)OC[C@H]1[C@H]2N2C(=O)c3cc(OC)ccc3NC(=O)[C@@]2(C)[C@H]1c1ccccc1`: the AC35 was 1.08 µM.

As for `CCOC(=O)c1c(C)c(C(=O)Nc2ccc(N(C)C)cc2)c(C)n1CC`, the AC35 was 3.56 µM.

In the case of `O=C(C=Cc1cccc(O)c1)c1ccccc1O`, the AC35 was 4.5 µM.

For `Cc1cc(C)n(-c2nnc3n2N=C(c2c[nH]c4ccccc24)CS3)n1`, the AC35 is 0.0285 µM.

As to `C/C(=N\NC(=O)c1c(Cl)c(C)nn1C)c1ccc(NC(=O)C2CCC2)cc1`, the AC35 was 0.475 µM.

For the molecule `O=C1[C@H]2[C@@H](c3ccc(F)cc3)N3C(=O)N(c4cccc(Cl)c4)C(=O)[C@@]3(Cc3ccccc3)[C@H]2C(=O)N1C1CCCCC1`, the AC35 is 1.06 µM.

In the case of `O=C(N/N=C/c1c(-c2ccccc2)[nH]c2ccccc12)c1cccnc1`, the AC35 was 1.28 µM.

For the molecule `O=C(Nc1ccc2oc(-c3cccnc3)nc2c1)c1ccc([N+](=O)[O-])o1`, the AC35 is 1.46 µM.

For the molecule `Cc1ccc(N2CCN(C3=NC(=O)/C(=C\c4cn[nH]c4-c4ccccc4)S3)CC2)cc1`, the AC35 is 0.793 µM.

On to `CN1C(=O)CSc2ccc(NC(=O)Nc3ccccn3)cc21`, for which the AC35 is 0.828 µM.

For the molecule `Cc1ccc2nsnc2c1NC(=O)c1ccc(-c2cc(Cl)ccc2Cl)o1`, the AC35 is 1.55 µM.

As for `O=C(N/N=C/c1ccccc1)c1sccc1OCc1ccc(F)cc1`, the AC35 is 3.06 µM.

In the case of `COc1ccc2c(c1)OC[C@H]1[C@H]2N2C(=O)c3cc(Cl)ccc3NC(=O)[C@@]2(C)[C@H]1c1ccccc1`, the AC35 was 0.996 µM.

As for `COc1cc(C#Cc2ccc3cc(CCCO)oc(=O)c3c2)cc(OC)c1`, the AC35 was 0.0628 µM.

Regarding `C[C@@]12C(=O)Nc3ccc(Br)cc3C(=O)N1[C@H]1c3ccccc3OC[C@@H]1[C@@H]2c1ccccc1`, the AC35 was 0.785 µM.

As for `O=C(NCCCN1CCOCC1)c1cc(-c2cccs2)on1`, the AC35 was 3.63 µM.

Take `COc1ccc(C(=O)CSc2nnc(-c3cc4ccccc4cc3O)n2Cc2ccco2)cc1`: the AC35 is 1.8 µM.

Turning to `CC1CN(C(=O)c2cc(-c3ccc(Cl)s3)nc3ccccc23)CC(C)O1` (stereo unspecified), the AC35 was 3.32 µM.

In the case of `COc1ccc(CNC(=O)c2cccc3c(-c4cccnc4)coc23)cc1OC`, the AC35 was 2.6 µM.

In the case of `O=c1cc(-c2ccccc2)[nH]c2cc(F)ccc12`, the AC35 was 2.38 µM.

For `CCN(CC)CCNC(=O)c1cc2c(=O)n(C)c3ccccc3c2s1`, the AC35 is 3.55 µM.

Take `COc1ccc(C(=O)n2c(-c3ccco3)nc3ccccc32)cc1`: the AC35 is 0.934 µM.

`NC(=O)CC(NC(=O)Cc1ccc(Br)cc1)c1ccc(NC2CCC2)c([N+](=O)[O-])c1` (stereo unspecified): the AC35 was 1.71 µM.

For `COc1cccc(/C=C2\SC(=S)N(CCC(=O)N3CCCCC3)C2=O)c1`, the AC35 was 4.37 µM.

As to `Nc1nc(-c2ccccc2)cc(-c2ccccc2O)n1`, the AC35 was 1.76 µM.

`COc1cc(C(=O)OCCCN2CCCN(CCCOC(=O)c3cc(OC)c(OC)c(OC)c3)CC2)cc(OC)c1OC`: the AC35 was 2.19 µM.

As for `Cc1ccc(-c2nc(NCCN(C)C)c3ccccc3n2)cc1`, the AC35 was 4.45 µM.

For the molecule `Cc1ccnc(NC(=O)Nc2ccc3c(c2)N(C)C(=O)CS3)c1`, the AC35 was 0.00868 µM.

Consider `Cc1ccc(C)n1-c1ccc(C(=O)/C=C/N(C)C)cc1`, for which the AC35 is 1.05 µM.

With `O=C(NCCCn1ccnc1)c1cc(-c2ccccc2)on1`, the AC35 was 1.48 µM.

Consider `COc1cccc(C2=NOC(C(=O)NCc3ccccc3)C2)c1` (stereo unspecified), for which the AC35 is 0.102 µM.

Take `O=C(NCCN1C(=O)S/C(=C\c2ccccc2F)C1=O)C1=COCCO1`: the AC35 was 0.214 µM.

As for `Cc1ccnc(NC(=O)CCCOc2cc(=O)n(C)c3ccccc23)c1`, the AC35 is 3.22 µM.

For `CC(=O)OC1CC[C@]2(C#N)[C@H]3CC[C@]4(C)[C@H](C5C=CC(=O)O5)CCC4(O)C3CCC2(O)C1` (stereo partly specified), the AC35 was 2.85 µM.

Take `C/C(=N\O)C(=O)C(CN1CCCCC1)CN1CCCCC1`: the AC35 is 1.21 µM.

Consider `Cc1ccc(C(=O)N/C(=C\c2ccco2)C(=O)NCCc2c[nH]c3ccccc23)cc1`, for which the AC35 was 1.74 µM.

`CCN1C(=O)c2cccc3c(S(=O)(=O)Nc4ccccn4)ccc1c23`: the AC35 is 1.86 µM.

Consider `COC(=O)c1ccc2c(=O)n(Cc3ccc(C(=O)NC(C)C)cc3)c(=S)[nH]c2c1`, for which the AC35 was 4.28 µM.

For the molecule `CCCNc1nc2ccccc2n2c(C)nnc12`, the AC35 was 0.0191 µM.

Consider `COc1ccc2[nH]c(C(=O)N/N=C/c3ccccc3OC)cc2c1`, for which the AC35 was 1.17 µM.

Consider `Cc1nc(N=C(N)N)nc2c(C)cccc12`, for which the AC35 was 3.82 µM.

For `CCn1ncc(C2=NOC(C(=O)NCc3ccccc3)C2)c1C` (stereo unspecified), the AC35 was 9.54 µM.

`c1ccc(Cc2nnc(Sc3ccccc3)c3ccccc23)cc1`: the AC35 is 3.83 µM.

As to `O=C(Nc1ccccc1O)c1ccc(NS(=O)(=O)c2cccc3cccnc23)cc1`, the AC35 was 4.41 µM.

Take `CC(=O)c1cccc(Nc2cc(C)nc3c(C)cc(C)cc23)c1`: the AC35 is 0.0234 µM.

In the case of `CC(C)(C)c1ccc(OCc2ccc(C(=O)Nc3cccnc3)o2)cc1`, the AC35 is 0.519 µM.

`O=C(/C=C/c1ccccc1)c1ccccc1`: the AC35 was 1.2 µM.

Take `CN(C)C(CNC(=O)CSc1nc2sc3c(c2c(=O)n1C)CCCC3)c1ccccc1` (stereo unspecified): the AC35 was 0.682 µM.

For the molecule `O=c1[nH]c(=O)n([C@H]2C[C@H](O)[C@@H](CO)O2)cc1I`, the AC35 is 4.15 µM.

Consider `OCCCN=c1cc(-c2ccccc2)oc2ccc(Cl)cc12`, for which the AC35 was 0.971 µM.

As for `COc1cccc(/C=N/NC(=O)c2cc3c(OC)c(OC)ccc3[nH]2)c1OC`, the AC35 is 4.94 µM.

Take `COc1ccccc1NS(=O)(=O)c1ccc(-c2cc(C)no2)s1`: the AC35 was 18.3 µM.

For `Cc1ccc2nc(SCc3nnc(-c4ccccc4[N+](=O)[O-])o3)c(C#N)cc2c1`, the AC35 is 1.3 µM.

`O=c1[nH]c(-c2ccccc2)nc2sc(-c3ccccc3)cc12`: the AC35 was 0.188 µM.

Turning to `Cc1ccc(S(=O)(=O)NC2=C(N3CCN(Cc4ccccc4)CC3)C(=O)c3ccccc3C2=O)cc1`, the AC35 is 2.54 µM.

In the case of `COc1cc(-c2coc3c(C(=O)NCc4ccc(OC)c(OC)c4)cccc23)ccc1O`, the AC35 was 2.8 µM.

On to `CCCOc1ccc2ccccc2c1/C=N/n1c(C)nnc1-n1nc(C)cc1C`, for which the AC35 is 0.0184 µM.

Regarding `O=c1cc(-c2ccccc2)[nH]c2ccccc12`, the AC35 was 2.48 µM.

Turning to `COc1ccc2c(c1)[C@H]1[C@H](CO2)[C@H](c2ccccc2)[C@]2(C)C(=O)Nc3cc(F)ccc3C(=O)N12`, the AC35 was 0.326 µM.

Take `Nc1[nH]nc2nc(NCc3ccccc3)c3c(c12)CCN(Cc1ccccc1)C3`: the AC35 was 2.84 µM.

On to `Cc1noc(C)c1-c1ccc(C(=O)NCCc2ccccc2)c2occc12`, for which the AC35 was 2.77 µM.

With `CCc1nn2c(NCCCO)cc(C)nc2c1-c1ccc(F)cc1`, the AC35 is 0.184 µM.

As to `O=C1Cc2c([nH]c3ccc([N+](=O)[O-])cc23)-c2ccccc2N1`, the AC35 is 0.894 µM.

Turning to `O=C(c1cn(Cc2ccccc2)nc1-c1ccccc1)N1CCN(c2ccccn2)CC1`, the AC35 is 0.984 µM.

`COCCCNC(=O)c1sc2ncn(CC(=O)Nc3ccc(C)c(Cl)c3)c(=O)c2c1C`: the AC35 is 2.51 µM.

For `CCNC(=O)COc1ccc(/C=C2\COc3ccccc3C2=O)cc1OC`, the AC35 was 4.8 µM.

As to `CC(=O)N1CCc2c(sc(NC(=O)c3ccc4c(c3)OCCO4)c2C#N)C1`, the AC35 was 1.52 µM.

Consider `O=C(N/N=C/c1ccc(Cl)cc1)c1sccc1OCc1ccc(F)cc1`, for which the AC35 was 0.514 µM.

On to `O=C(Nc1ccccc1N1CCOCC1)c1ccc2nc[nH]c2c1`, for which the AC35 is 0.852 µM.

On to `COc1ccccc1-n1cnc2cc(NCc3cccs3)ccc21`, for which the AC35 is 0.266 µM.

As for `COc1ccc(CCn2c(O)c(C=NCc3ccc4c(c3)OCO4)c(=O)[nH]c2=O)cc1OC`, the AC35 is 0.678 µM.

As to `O=C(Nc1cccc(NC(=O)c2cccs2)c1)c1ccc([N+](=O)[O-])o1`, the AC35 was 1.05 µM.

As for `Cc1ccc(/C=N/NC(=O)c2sccc2OCc2ccc(F)cc2)cc1`, the AC35 was 1.26 µM.
